Assay results from the CheMixHub viscosity set.
Several values for one entry are separate records, joined by “and”; a condition that tells them apart may be missing. Identical values can stand only once. ± gives the uncertainty stated by the source.

Test: xn = mol fraction of the nth substance listed

In the case of `OCCOCCO` + O, the viscosity (293.15 K, 100 kPa, x2 = 0.013) is reported as 37.31 ± 1.5 mPa·s, the viscosity (293.15 K, 100 kPa, x2 = 0.037) is reported as 35.38 ± 2.9 mPa·s and 33.15 ± 5.9 mPa·s and the viscosity (293.15 K, 100 kPa, x2 = 0.038) is reported as 34.7 ± 3 mPa·s. For the same compound, the viscosity (293.15 K, 100 kPa, x2 = 0.075) was 34.97 ± 1.5 mPa·s, the viscosity (293.15 K, 100 kPa, x2 = 0.082) was 34.55 ± 1.5 mPa·s and the viscosity (298.15 K, 100 kPa, x2 = 0.013) was 29.02 ± 1.2 mPa·s. The viscosity (298.15 K, 100 kPa, x2 = 0.037) was 27.76 ± 4.6 mPa·s, the viscosity (298.15 K, 100 kPa, x2 = 0.075) was 27.47 ± 1.6 mPa·s and the viscosity (298.15 K, 100 kPa, x2 = 0.082) was 27.12 ± 1.2 mPa·s. The viscosity (298.15 K, 101.33 kPa, x2 = 0.1041) was 25.71 ± 0.44 mPa·s, the viscosity (298.15 K, 101.33 kPa, x2 = 0.2105) was 24.14 ± 0.41 mPa·s and the viscosity (298.15 K, 101.33 kPa, x2 = 0.2697) was 22.9 ± 0.39 mPa·s. For the same compound, the viscosity (298.15 K, 101.33 kPa, x2 = 0.4009) was 19.9 ± 0.34 mPa·s, the viscosity (298.15 K, 101.33 kPa, x2 = 0.5145) was 16.51 ± 0.29 mPa·s and the viscosity (298.15 K, 101.33 kPa, x2 = 0.6157) was 12.99 ± 0.23 mPa·s. The viscosity (298.15 K, 101.33 kPa, x2 = 0.7095) was 9.442 ± 0.18 mPa·s, the viscosity (298.15 K, 101.33 kPa, x2 = 0.825) was 5.193 ± 0.11 mPa·s and the viscosity (298.15 K, 101.33 kPa, x2 = 0.9059) was 2.772 ± 0.062 mPa·s. For the same compound, the viscosity (303.15 K, 100 kPa, x2 = 0.013) was 23.06 ± 0.95 mPa·s, the viscosity (303.15 K, 100 kPa, x2 = 0.038) was 21.92 ± 1.1 mPa·s and the viscosity (303.15 K, 100 kPa, x2 = 0.075) was 21.95 ± 1.2 mPa·s. For the same compound, the viscosity (303.15 K, 101 kPa, x1 = 0.002) was 0.836 ± 0.17 mPa·s, the viscosity (303.15 K, 101 kPa, x1 = 0.004) was 0.863 ± 0.17 mPa·s and the viscosity (303.15 K, 101 kPa, x1 = 0.005) was 0.883 ± 0.18 mPa·s. The viscosity (303.15 K, 101 kPa, x1 = 0.007) was 0.91 ± 0.18 mPa·s, the viscosity (303.15 K, 101 kPa, x1 = 0.009) was 0.938 ± 0.19 mPa·s and the viscosity (303.15 K, 101 kPa, x1 = 0.01) was 0.975 ± 0.2 mPa·s and 1.02 ± 0.2 mPa·s and 1.076 ± 0.21 mPa·s. For the same compound, the viscosity (303.15 K, 101 kPa, x1 = 0.018) was 1.171 ± 0.23 mPa·s, the viscosity (303.15 K, 101.33 kPa, x1 = 0.0004) was 0.778 ± 0.011 mPa·s and the viscosity (303.15 K, 101.33 kPa, x1 = 0.0007) was 0.785 ± 0.011 mPa·s. The viscosity (303.15 K, 101.33 kPa, x1 = 0.0015) was 0.788 ± 0.011 mPa·s, the viscosity (303.15 K, 101.33 kPa, x1 = 0.0027) was 0.804 ± 0.011 mPa·s and the viscosity (303.15 K, 101.33 kPa, x1 = 0.0047) was 0.836 ± 0.012 mPa·s. For the same compound, the viscosity (303.15 K, 101.33 kPa, x1 = 0.0193) was 1.02 ± 0.014 mPa·s, the viscosity (303.15 K, 101.33 kPa, x1 = 0.0548) was 1.579 ± 0.02 mPa·s and the viscosity (303.15 K, 101.33 kPa, x1 = 0.0991) was 2.467 ± 0.031 mPa·s. It also gave a viscosity (303.15 K, 101.33 kPa, x1 = 0.1966) of 4.98 ± 0.06 mPa·s, a viscosity (303.15 K, 101.33 kPa, x1 = 0.2956) of 7.943 ± 0.087 mPa·s and a viscosity (303.15 K, 101.33 kPa, x1 = 0.3956) of 10.97 ± 0.12 mPa·s. The viscosity (303.15 K, 101.33 kPa, x1 = 0.4905) was 13.62 ± 0.14 mPa·s, the viscosity (303.15 K, 101.33 kPa, x1 = 0.6406) was 17.06 ± 0.17 mPa·s and the viscosity (303.15 K, 101.33 kPa, x1 = 0.8543) was 20.37 ± 0.2 mPa·s. For the same compound, the viscosity (308.15 K, 100 kPa, x2 = 0.013) was 18.69 ± 0.77 mPa·s, the viscosity (308.15 K, 100 kPa, x2 = 0.037) was 18.11 ± 2.1 mPa·s and 16.84 ± 0.82 mPa·s and the viscosity (308.15 K, 100 kPa, x2 = 0.082) was 17.7 ± 0.73 mPa·s. The viscosity (308.15 K, 101 kPa, x1 = 0.002) was 0.736 ± 0.15 mPa·s, the viscosity (308.15 K, 101 kPa, x1 = 0.004) was 0.753 ± 0.15 mPa·s and the viscosity (308.15 K, 101 kPa, x1 = 0.005) was 0.805 ± 0.16 mPa·s. The viscosity (308.15 K, 101 kPa, x1 = 0.007) was 0.832 ± 0.17 mPa·s, the viscosity (308.15 K, 101 kPa, x1 = 0.009) was 0.867 ± 0.17 mPa·s and the viscosity (308.15 K, 101 kPa, x1 = 0.01) was 0.902 ± 0.18 mPa·s and 0.938 ± 0.19 mPa·s and 0.991 ± 0.2 mPa·s. For the same compound, the viscosity (308.15 K, 101 kPa, x1 = 0.018) was 1.082 ± 0.22 mPa·s, the viscosity (308.15 K, 101 kPa, x1 = 0.02) was 1.028 ± 0.21 mPa·s and the viscosity (308.15 K, 101 kPa, x1 = 0.7525) was 15.65 ± 0.43 mPa·s. The viscosity (308.15 K, 101.33 kPa, x1 = 0.0004) was 0.704 ± 0.01 mPa·s, the viscosity (308.15 K, 101.33 kPa, x1 = 0.0007) was 0.71 ± 0.01 mPa·s and the viscosity (308.15 K, 101.33 kPa, x1 = 0.0015) was 0.717 ± 0.01 mPa·s. For the same compound, the viscosity (308.15 K, 101.33 kPa, x1 = 0.0027) was 0.73 ± 0.01 mPa·s, the viscosity (308.15 K, 101.33 kPa, x1 = 0.0047) was 0.749 ± 0.01 mPa·s and the viscosity (308.15 K, 101.33 kPa, x1 = 0.0193) was 0.905 ± 0.012 mPa·s. The viscosity (308.15 K, 101.33 kPa, x1 = 0.0991) was 2.107 ± 0.026 mPa·s, the viscosity (308.15 K, 101.33 kPa, x1 = 0.1966) was 4.169 ± 0.05 mPa·s and the viscosity (308.15 K, 101.33 kPa, x1 = 0.2956) was 6.484 ± 0.073 mPa·s. It also gave a viscosity (308.15 K, 101.33 kPa, x1 = 0.3956) of 8.911 ± 0.096 mPa·s, a viscosity (308.15 K, 101.33 kPa, x1 = 0.4905) of 10.95 ± 0.11 mPa·s and a viscosity (308.15 K, 101.33 kPa, x1 = 0.5794) of 12.64 ± 0.13 mPa·s. For the same compound, the viscosity (308.15 K, 101.33 kPa, x1 = 0.775) was 15.47 ± 0.16 mPa·s, the viscosity (308.15 K, 101.33 kPa, x1 = 0.8543) was 16.25 ± 0.16 mPa·s and the viscosity (308.15 K, 101.33 kPa, x1 = 0.917) was 16.82 ± 0.17 mPa·s. The viscosity (313.15 K, 100 kPa, x2 = 0.013) was 15.39 ± 0.63 mPa·s, the viscosity (313.15 K, 100 kPa, x2 = 0.037) was 14.96 ± 0.65 mPa·s and the viscosity (313.15 K, 100 kPa, x2 = 0.038) was 15.25 ± 1 mPa·s. For the same compound, the viscosity (313.15 K, 100 kPa, x2 = 0.075) was 14.8 ± 0.76 mPa·s, the viscosity (313.15 K, 101 kPa, x1 = 0.002) was 0.67 ± 0.13 mPa·s and the viscosity (313.15 K, 101 kPa, x1 = 0.004) was 0.685 ± 0.14 mPa·s. It also gave a viscosity (313.15 K, 101 kPa, x1 = 0.005) of 0.703 ± 0.14 mPa·s, a viscosity (313.15 K, 101 kPa, x1 = 0.007) of 0.738 ± 0.15 mPa·s and a viscosity (313.15 K, 101 kPa, x1 = 0.009) of 0.78 ± 0.16 mPa·s. For the same compound, the viscosity (313.15 K, 101 kPa, x1 = 0.01) was 0.83 ± 0.17 mPa·s and 0.872 ± 0.17 mPa·s and 0.907 ± 0.18 mPa·s, the viscosity (313.15 K, 101 kPa, x1 = 0.018) was 0.994 ± 0.2 mPa·s and the viscosity (313.15 K, 101 kPa, x1 = 0.02) was 0.958 ± 0.19 mPa·s. The viscosity (318.15 K, 100 kPa, x2 = 0.013) was 12.84 ± 0.53 mPa·s, the viscosity (318.15 K, 100 kPa, x2 = 0.037) was 12.51 ± 1.1 mPa·s and the viscosity (318.15 K, 100 kPa, x2 = 0.038) was 12.4 ± 0.94 mPa·s. The viscosity (318.15 K, 100 kPa, x2 = 0.075) was 12.37 ± 0.6 mPa·s, the viscosity (318.15 K, 101 kPa, x1 = 0.002) was 0.612 ± 0.12 mPa·s and the viscosity (318.15 K, 101 kPa, x1 = 0.004) was 0.621 ± 0.12 mPa·s. For the same compound, the viscosity (318.15 K, 101 kPa, x1 = 0.005) was 0.654 ± 0.13 mPa·s, the viscosity (318.15 K, 101 kPa, x1 = 0.007) was 0.688 ± 0.14 mPa·s and the viscosity (318.15 K, 101 kPa, x1 = 0.009) was 0.729 ± 0.15 mPa·s. For the same compound, the viscosity (318.15 K, 101 kPa, x1 = 0.01) was 0.779 ± 0.16 mPa·s and 0.821 ± 0.16 mPa·s and 0.864 ± 0.17 mPa·s, the viscosity (318.15 K, 101 kPa, x1 = 0.018) was 0.949 ± 0.19 mPa·s and the viscosity (318.15 K, 101 kPa, x1 = 0.02) was 0.906 ± 0.18 mPa·s. The viscosity (323.15 K, 100 kPa, x2 = 0.013) was 10.85 ± 0.44 mPa·s, the viscosity (323.15 K, 100 kPa, x2 = 0.037) was 10.58 ± 0.9 mPa·s and 9.873 ± 0.41 mPa·s and the viscosity (323.15 K, 100 kPa, x2 = 0.038) was 10.49 ± 0.46 mPa·s. The viscosity (323.15 K, 100 kPa, x2 = 0.075) was 10.44 ± 0.49 mPa·s, the viscosity (323.15 K, 100 kPa, x2 = 0.082) was 10.35 ± 0.42 mPa·s and the viscosity (323.15 K, 101 kPa, x1 = 0.002) was 0.555 ± 0.11 mPa·s. It also gave a viscosity (323.15 K, 101 kPa, x1 = 0.004) of 0.571 ± 0.11 mPa·s, a viscosity (323.15 K, 101 kPa, x1 = 0.005) of 0.587 ± 0.12 mPa·s and a viscosity (323.15 K, 101 kPa, x1 = 0.007) of 0.619 ± 0.12 mPa·s. The viscosity (323.15 K, 101 kPa, x1 = 0.009) was 0.667 ± 0.13 mPa·s, the viscosity (323.15 K, 101 kPa, x1 = 0.01) was 0.707 ± 0.14 mPa·s and 0.747 ± 0.15 mPa·s and 0.78 ± 0.16 mPa·s and the viscosity (323.15 K, 101 kPa, x1 = 0.018) was 0.869 ± 0.17 mPa·s. The viscosity (323.15 K, 101 kPa, x1 = 0.02) was 0.828 ± 0.17 mPa·s.
